Patent US20080274543A1, “Neuronal Cell Propagation Using Rotating Wall Vessel” (THE ADMINISTRATORS OF THE TULANE EDUCATIONAL FUND, priority 2007, published 2008)
“And” between values parts separate entries of the source, which are not always exact repeats. Identical values can stand only once.

System: SY cells
Assay: TUNEL apoptosis assay, TG-stimulated SY cells in 3-D versus 2-D culture
Assay type: cell-based, human
Description: SY cells (1×10^6) cultured in 2-D or 3-D were incubated with or without 10 nM TG. The 2-D and 3-D cells were harvested using trypsin, washed in PBS, and fixed for 5-10 min in 2% PFA. Prior to fixation, the 3-D-cultured cells treated inside of the RWV were separated from the beads using a 40-μm cell strainer (Becton Dickinson). The fixed cells were permeabilized in PBS/FSG/Triton and blocked with 10% NGS. Apoptosis was evaluated using the Apoptag TUNEL assay kit (Chemicon). The results were analyzed using a Leica TCS SP2 confocal microscope as described above. Cell morphology consistent with apoptosis including cell shrinkage, nuclear condensation and membrane blebbing were assessed along with the fluorescein staining for TUNEL. The number of apoptotic cells counted was divided by the total (500 minimum) number of cells counted. This protocol was also followed for evaluation of apoptosis in PC12 cells. An increased drug tolerance, 30-nM TG was used in the PC12 assay. 3-D-cultured PC12 samples were stimulated for 5 days after removal from the RWV to multi-well dishes.
Thapsigargin (TG) is known to induce apoptosis through the passive release of Ca^2+ from ER stores. These events lead to subsequent increases in cytosolic Ca^2+, stressing both the ER and the mitochondria (Elyaman et al., 2002; Nechushtan A, Smith C L, Lamensdorf I, Yoon S H, Youle R J. Bax and Bak coalesce into novel mitochondria-associated clusters during apoptosis. The Journal of cell biology, 2001; 153: 1265-76; Nguyen H N, Wang C, Perry D C. Depletion of intracellular calcium stores is toxic to SH-SY5Y neuronal cells. Brain Res, 2002; 924: 159-66; Scorrano et al., 2003; Zong W X, Li C, Hatzivassiliou G, Lindsten T, Yu Q C, Yuan J, Thompson C B. Bax and Bak can localize to the endoplasmic reticulum to initiate apoptosis. The Journal of cell biology, 2003; 162: 59-69). In order to determine inherent differences in apoptosis between the 3-D and 2-D cultured cells, the terminal uridine deoxynucleotidyl transferase dUTP nick end labeling (TUNEL) assay was used. […]

C/C=C(/C)C(=O)O[C@H]1C(C)=C2[C@H]([C@@H]1OC(=O)CCCCCCC)[C@@](C)(OC(C)=O)C[C@H](OC(=O)CCC)[C@@]1(O)[C@H]2OC(=O)[C@@]1(C)O [TG, Thapsigargin]
thapsigargin-induced apoptosis in 3D cultured SH-SY5Y cells versus monolayer (3D versus ML culture): notably enhanced
degree of apoptosis in TG-stimulated versus control cells at 24 h (24 h, TG 10 nM): noticeable difference in the degree of apoptosis occurring in stimulated versus control cells was found only in the 3-D(RWV) cells
increase in TUNEL-positive (apoptotic) SY cells, 3-D versus 2-D culture, when treated with TG (TG 10 nM, 5 days, 3-D+TG versus 2-D+TG): 4 to 7 fold and 4- to 7 fold
